System: HIV replication
Experiment: not given
Conditions: at concentration that can be obtained with conventional dosing; cited from earlier work

Compound	reduces HIV replication
Cc1oncc1C(=O)Nc1ccc(C(F)(F)F)cc1 [Leflunomide]	about 75%

Biological target: human DHODH (Homo sapiens (Human), UniProt Q02127)
Experiment: Inhibition of human DHODH activity assay (DCIP chromogen reduction)
Conditions: read-out: hDHODH IC50; human enzyme extract, 200 μM CoQD, 100 μM L-DHO, 120 μM DCIP, 10 min room temperature, absorbance 600 nm
Experimental: DHODH activity and its inhibition were studied using a chromogen reduction assay with DCIP (2,6-dichlorophenol-indophenol).
Enzyme extracts (8 μl, ˜1.5 μg of human protein) were incubated in 96-well plates. The assay mixture (200 μl) contained 200 μM CoQD, 100 μM L-DHO, 120 μM DCIP in the assay buffer (100 mM HEPES pH 8.0, 150 mM NaCl, 10% Glicerol, 0.05% Triton X-100) and 2 μl of test compound. The compounds were dissolved in DMSO at a stock concentration of 1 mM, and tested at different concentrations varying from 10 μM to 1 μM to calculate an IC50 (concentration of inhibitor required for 50% of inhibition).
The reaction was initiated by adding the enzyme and then incubated for 10 min at room temperature before measuring DCIP reduction by counting a decrease in absorbance at 600 nm using standard instrumentation (Spectramax).
All reactions were carried out in duplicate and graphs, determining IC50 values for each compound, were plotted using the ABase software.

Chain of human DHODH (Q02127 whole entry): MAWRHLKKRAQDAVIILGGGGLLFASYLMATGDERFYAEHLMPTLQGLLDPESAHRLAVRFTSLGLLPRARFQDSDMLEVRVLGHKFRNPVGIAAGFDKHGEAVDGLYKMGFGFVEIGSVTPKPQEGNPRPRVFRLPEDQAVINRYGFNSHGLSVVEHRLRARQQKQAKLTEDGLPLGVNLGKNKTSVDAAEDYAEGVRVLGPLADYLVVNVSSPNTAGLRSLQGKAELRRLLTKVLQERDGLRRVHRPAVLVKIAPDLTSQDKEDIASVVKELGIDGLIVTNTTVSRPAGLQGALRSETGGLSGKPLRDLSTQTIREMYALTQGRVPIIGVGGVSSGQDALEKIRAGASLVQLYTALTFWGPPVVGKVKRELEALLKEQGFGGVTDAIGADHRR

Compound	IC50 [nM]
O=C(O)c1cccnc1Nc1c(F)cc(-c2cccc(OC3CCC3)c2)cc1F [Example 17, 2-(3′-Cyclobutoxy-3,5-difluorobiphenyl-4-ylamino)nicotinic acid]	90
CCOc1cccc(-c2ccc(Nc3cnccc3C(=O)O)c(F)c2)c1 [Example 21, Lithium 3-(3′-ethoxy-3-fluorobiphenyl-4-ylamino)isonicotinate]	19
COc1cccc(-c2ccc(Nc3cnccc3C(=O)O)c(OC(F)(F)F)c2)c1 [Example 23, Lithium 3-(3′-methoxy-3-(trifluoromethoxy)biphenyl-4-ylamino)isonicotinate]	14
O=C(O)c1ccncc1Nc1ccc(-c2cccc(OC(F)(F)F)c2)cc1F [Example 24, Lithium 3-(3-fluoro-3′-(trifluoromethoxy)biphenyl-4-ylamino)isonicotinate]	200
COc1cccc(-c2ccc(Nc3ncc(C4CC4)cc3C(=O)O)c(F)c2)c1 [Example 34, 5-Cyclopropyl-2-(3-fluoro-3′-methoxybiphenyl-4-ylamino)nicotinic acid]	33
CCc1cnc(Nc2c(F)cc(-c3cccc(OC)c3)cc2F)c(C(=O)O)c1 [Example 40, 2-(3,5-difluoro-3′-methoxybiphenyl-4-ylamino)-5-ethylnicotinic acid]	12
CCOc1cccc(-c2cc(F)c(Nc3ncc(C4CC4)cc3C(=O)O)cc2F)c1 [Example 42, 5-cyclopropyl-2-(3′-ethoxy-2,5-difluorobiphenyl-4-ylamino)nicotinic acid]	23
O=C(O)c1cccnc1Nc1c(F)cc(-c2cccc(OC3CC3)c2)cc1F [Example 47, 2-(3′-cyclopropoxy-3,5-difluorobiphenyl-4-ylamino)nicotinic acid]	17
Cc1c(-c2cccc(OC(F)(F)F)c2)cc(F)c(Nc2ncccc2C(=O)O)c1F [Example 56, 2-(3,5-difluoro-2-methyl-3′-(trifluoromethoxy)biphenyl-4-ylamino)nicotinic acid]	6
O=C(O)c1cc(Cl)cnc1Nc1c(F)cc(-c2ccccc2)cc1F [Example 58, 5-chloro-2-(3,5-difluorobiphenyl-4-ylamino)nicotinic acid]	8

Next, values leading:

IC50 [nM]	Compound
200	CCOc1cccc(-c2ccc(Nc3ncccc3C(=O)O)c(F)c2)c1 [Example 2, 2-(3′-Ethoxy-3-fluorobiphenyl-4-ylamino)nicotinic acid]
150	COc1cccc(-c2ccc(Nc3ncccc3C(=O)O)c(Cl)c2)c1 [Example 13, 2-(3-Chloro-3′-methoxybiphenyl-4-ylamino)nicotinic acid]
110	Cc1cnc(Nc2ccc(-c3cccc(OC(F)(F)F)c3)cc2F)c(C(=O)O)c1 [Example 33, 2-(3-Fluoro-3′-(trifluoromethoxy)biphenyl-4-ylamino)-5-methylnicotinic acid]
99	COc1cccc(-c2cc(F)c(Nc3ncccc3C(=O)O)cc2C)c1 [Example 37, 2-(5-Fluoro-3′-methoxy-2-methylbiphenyl-4-ylamino)nicotinic acid]
88	COc1cccc(-c2cc(F)c(Nc3ncccc3C(=O)O)cc2F)c1 [Example 6, 2-(2,5-Difluoro-3′-methoxybiphenyl-4-ylamino)nicotinic acid]
53	COc1cccc(-c2cc(F)c(Nc3ncccc3C(=O)O)c(F)c2)c1F [Example 45, 2-(2′,3,5-trifluoro-3′-methoxybiphenyl-4-ylamino)nicotinic acid]
19	CCOc1cccc(-c2cc(F)c(Nc3ncccc3C(=O)O)c(F)c2)c1 [Example 19, 2-(3′-Ethoxy-3,5-difluorobiphenyl-4-ylamino)nicotinic acid]
11	Cc1ccccc1-c1cc(F)c(Nc2ncccc2C(=O)O)c(F)c1 [Example 61, 2-(3,5-difluoro-2′-methylbiphenyl-4-ylamino)nicotinic acid]
6	O=C(O)c1cc(C2CC2)cnc1Nc1c(F)cc(-c2cccc(OC3CC3)c2)cc1F [Example 50, 2-(3′-cyclopropoxy-3,5-difluorobiphenyl-4-ylamino)-5-cyclopropylnicotinic acid]
5	Cc1c(-c2ccccc2)cc(F)c(Nc2ncccc2C(=O)O)c1F [Example 48, 2-(3,5-difluoro-2-methylbiphenyl-4-ylamino)nicotinic acid]
5	O=C(O)c1cc(C2CC2)cnc1Nc1c(F)cc(-c2ccccc2Cl)cc1F [Example 54, 2-(2′-chloro-3,5-difluorobiphenyl-4-ylamino)-5-cyclopropylnicotinic acid]
4	O=C(O)c1cc(C2CC2)cnc1Nc1c(F)cc(-c2cccc(OC(F)(F)F)c2)cc1F [Example 52, 5-cyclopropyl-2-(3,5-difluoro-3′-(trifluoromethoxy)biphenyl-4-ylamino)nicotinic acid]
4	Cc1c(-c2ccccc2Cl)cc(F)c(Nc2ncccc2C(=O)O)c1F [Example 57, 2-(2′-chloro-3,5-difluoro-2-methylbiphenyl-4-ylamino)nicotinic acid]
3	COc1cccc(-c2c(F)c(F)c(Nc3ncccc3C(=O)O)c(F)c2F)c1 [Example 60, 2-(2,3,5,6-tetrafluoro-3′-methoxybiphenyl-4-ylamino)nicotinic acid]

— patent US8691852B2, “Amino nicotinic and isonicotinic acid derivatives as DHODH inhibitors” (Amirall, S.A., priority 2006, dated 2014)
